PubChem BioAssay AID1963828 (Molecular Pharmacology Branch, DTP, NCI, 2024)

Tested on: 991263-137-R1-J2-PDC complex spheroid viability
Assay: Anticancer human tumor 991263-137-R1-J2-PDC patient-derived colon adenocarcinoma cell line growth inhibition [POLQ]
Settings: for IC50: curve of first compound; for viability, T/C: stronger effect = lower value
Description: Multicellular complex tumor spheroid response to Polymerase (POL) inhibitors (novobiocin, ART-558, RP6685) in combination with a variety of drugs and investigational agents in selected tumor cell lines
The POL inhibitors (novobiocin, ART-558, and RP6685) were evaluated both individually and in combination with standard of care and investigational anticancer small molecules within a complex spheroid model of solid tumors. . Complex spheroids include a stromal component modeled by human endothelial cells (HUVEC) and fibroblasts modeled by human mesenchymal stem cells (MSCs). The concentration ranges selected for each drug and investigational agent were based upon clinically achievable concentrations if the clinical Cmax of the agent was known.
Compounds. The drugs and investigational agents: novobiocin (NSC847541), ART-558 (NSC835418), RP-6685 (NSC848927), peposertib (NSC802822), ceralasertib (NSC780249), elimusertib (NSC800525), camonsertib (NSC841442), AZD-1390 (NSC803789), olaparib (NSC753686), talazoparib (NSC767125), rucaparib (NSC756644), sotorasib (NSC818433), MRTX-1133 (NSC836407), SN-38 (NSC673596), topotecan (NSC609699), epotoside (NSC141540), doxorubicin (NSC123127), gemcitabine (NSC613327), 5-fluorouracil (NSC19893), paclitaxel (NSC125973), vemurafenib (NSC761431), MSA-2 (NSC828583), SN-011 (NSC837082), adavosertib (NSC754352), prexasertib (NSC758257), carboplatin (NSC241240) and oxaliplatin (NSC266046), were obtained from the National Cancer Institute (NCI) Developmental Therapeutics Program Chemical Repository (21). The FDA-approved anticancer drug set is available from the Developmental Therapeutics Program at https://dtp.cancer.gov/organization/dscb/obtaining/. […] The stock solutions were prepared in dimethyl sulfoxide (DMSO, Sigma-Aldrich, St. Louis, MO, cat. D2650), except for the platinum compounds which were prepared in saline (Quality Biological, Gaithersburg, MD, cat. 114-055-101), at 800-fold the tested concentration and stored at -70 degrees C prior to their use. All drugs and investigational agents were tested over a range starting from a high concentration at or near the clinical Cmax and decreasing in half-log increments. If the clinical Cmax for an agent had not been determined, the highest concentration tested was 10 microM, except for SN-38, which was tested at a high concentration of 1 microM.
Cell Culture. All cells were maintained in an incubator at 37 degrees C and 5% CO2 with 95% humidity. The PDC lines were cultured according to standard operating procedures established by the NCI PDMR (https://pdmr.cancer.gov). Table 3 of the manuscript, lists the cell lines along with the number of the three cell types plated to form the mct-spheroids and media for tumor cell growth. After thawing, all PDC lines, except 997537-175-T-J1-PDC and 415267-285-R-J2-PDC, were cultured in Matrigel-coated flasks prepared with a working solution of 1X Ham's F-12 nutrient mix, without supplementation (Thermo Fisher Scientific, cat. 11765054), 100 U/mL penicillin-streptomycin (Thermo Fisher Scientific, cat. 15140122), and 2.5% Matrigel (Corning Inc., Corning, NY, cat. 354248) for the first three passages. The two PDC lines 997537-175-T-J1-PDC and 415267-285-R-J2-PDC were cultured on uncoated flasks. The 857933-349-R-J2-PDC line was cultured in 6C/Colon 1B media containing advanced DMEM/F-12 (Thermo Fisher Scientific, cat. 12634028), 10 mM HEPES (Thermo Fisher Scientific, cat. 15630080), 1X GlutaMAX supplement (Thermo Fisher Scientific, cat. 35050061), 0.1 mg/mL primocin (InvivoGen, San Diego, CA, cat. ant-pm-2), 10% defined fetal bovine serum, heat inactivated (HyClone Laboratories Inc., Logan, UT, cat. SH30070.03HI), 50% L-WRN conditioned media (ATCC, cat. CRL-3276), 1.25 mM N-Acetyl-L-cysteine (Sigma-Aldrich, cat. A9165), 10 mM nicotinamide (Sigma-Aldrich, cat. N0636), 1X B-27 supplement (Thermo Fisher Scientific, cat. 17504044), 1X N-2 supplement (Thermo Fisher Scientific, cat. […]

[1] = second compound 0.0316 µM, first compound 0.0316 µM
[2] = second compound 0.0316 µM, first compound 0.1 µM
[3] = second compound 0.0316 µM, first compound 0.316 µM
[4] = second compound 0.0316 µM, first compound 1 µM
[5] = second compound 0.0316 µM, first compound 3.16 µM
[6] = second compound 0.0316 µM, first compound 10 µM
[7] = second compound 0.1 µM, first compound 0.0316 µM
[8] = second compound 0.1 µM, first compound 0.1 µM
[9] = second compound 0.1 µM, first compound 0.316 µM
[10] = second compound 0.1 µM, first compound 1 µM
[11] = second compound 0.1 µM, first compound 3.16 µM
[12] = second compound 0.1 µM, first compound 10 µM
[13] = second compound 0.316 µM, first compound 0.0316 µM
[14] = second compound 0.316 µM, first compound 0.1 µM
[15] = second compound 0.316 µM, first compound 0.316 µM
[16] = second compound 0.316 µM, first compound 1 µM
[17] = second compound 0.316 µM, first compound 3.16 µM
[18] = second compound 0.316 µM, first compound 10 µM
[19] = second compound 1 µM, first compound 0.0316 µM
[20] = second compound 1 µM, first compound 0.1 µM
[21] = second compound 1 µM, first compound 0.316 µM
[22] = second compound 1 µM, first compound 1 µM
[23] = second compound 1 µM, first compound 3.16 µM
[24] = second compound 1 µM, first compound 10 µM
[25] = second compound 3.16 µM, first compound 0.0316 µM
[26] = second compound 3.16 µM, first compound 0.1 µM
[27] = second compound 3.16 µM, first compound 0.316 µM
[28] = second compound 3.16 µM, first compound 1 µM
[29] = second compound 3.16 µM, first compound 3.16 µM
[30] = second compound 3.16 µM, first compound 10 µM
[31] = second compound 10 µM, first compound 0.0316 µM
[32] = second compound 10 µM, first compound 0.1 µM
[33] = second compound 10 µM, first compound 0.316 µM
[34] = second compound 10 µM, first compound 1 µM
[35] = second compound 10 µM, first compound 3.16 µM
[36] = second compound 10 µM, first compound 10 µM
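Also: spheroids exposed to compounds for 7 days before readout.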
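For viability, T/C in this document: 100% = DMSO vehicle control viability.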

## CC(=O)O[C@H]1C(=O)[C@@]2(C)[C@H]([C@H](OC(=O)c3ccccc3)[C@]3(O)C[C@H](OC(=O)[C@H](O)[C@@H](NC(=O)c4ccccc4)c4ccccc4)C(C)=C1C3(C)C)[C@]1(OC(C)=O)CO[C@@H]1C[C@@H]2O + COC1C(OC(N)=O)C(O)C(Oc2ccc3c(O)c(NC(=O)c4ccc(O)c(CC=C(C)C)c4)c(=O)oc3c2C)OC1(C)C
Second compound 0.0316 µM
  IC50: > 3 µM
Second compound 0.1 µM
  IC50: 1.95 µM
Second compound 0.316 µM
  IC50: 1.58 µM
Second compound 1 µM
  IC50: 1.54 µM
Second compound 3.16 µM
  IC50: 1.85 µM
Second compound 10 µM
  IC50: 1.7 µM
Second compound 0.0316 µM, first compound 0.00949 µM
  viability, T/C: 90%
Second compound 0.0316 µM, first compound 0.03 µM
  viability, T/C: 100%
Second compound 0.0316 µM, first compound 0.0949 µM
  viability, T/C: 75.2%
Second compound 0.0316 µM, first compound 0.3 µM
  viability, T/C: 54.2%
Second compound 0.0316 µM, first compound 0.949 µM
  viability, T/C: 51.6%
Second compound 0.0316 µM, first compound 3 µM
  viability, T/C: 48.9%
Second compound 0.1 µM, first compound 0.00949 µM
  viability, T/C: 100%
Second compound 0.1 µM, first compound 0.03 µM
  viability, T/C: 90.3%
Second compound 0.1 µM, first compound 0.0949 µM
  viability, T/C: 78.7%
Second compound 0.1 µM, first compound 0.3 µM
  viability, T/C: 83%
Second compound 0.1 µM, first compound 0.949 µM
  viability, T/C: 58.8%
Second compound 0.1 µM, first compound 3 µM
  viability, T/C: 43%
Second compound 0.316 µM, first compound 0.00949 µM
  viability, T/C: 103%
Second compound 0.316 µM, first compound 0.03 µM
  viability, T/C: 97%
Second compound 0.316 µM, first compound 0.0949 µM
  viability, T/C: 75.5%
Second compound 0.316 µM, first compound 0.3 µM
  viability, T/C: 74.3%
Second compound 0.316 µM, first compound 0.949 µM
  viability, T/C: 50.3%
Second compound 0.316 µM, first compound 3 µM
  viability, T/C: 45.4%
Second compound 1 µM, first compound 0.00949 µM
  viability, T/C: 93.2%
Second compound 1 µM, first compound 0.03 µM
  viability, T/C: 97.5%
Second compound 1 µM, first compound 0.0949 µM
  viability, T/C: 83.8%
Second compound 1 µM, first compound 0.3 µM
  viability, T/C: 74.1%
Second compound 1 µM, first compound 0.949 µM
  viability, T/C: 55.6%
Second compound 1 µM, first compound 3 µM
  viability, T/C: 42.1%
Second compound 3.16 µM, first compound 0.00949 µM
  viability, T/C: 96.2%
Second compound 3.16 µM, first compound 0.03 µM
  viability, T/C: 83.5%
Second compound 3.16 µM, first compound 0.0949 µM
  viability, T/C: 81.4%
Second compound 3.16 µM, first compound 0.3 µM
  viability, T/C: 70.6%
Second compound 3.16 µM, first compound 0.949 µM
  viability, T/C: 54.5%
Second compound 3.16 µM, first compound 3 µM
  viability, T/C: 45.7%
Second compound 10 µM, first compound 0.00949 µM
  viability, T/C: 86.7%
Second compound 10 µM, first compound 0.03 µM
  viability, T/C: 91.2%
Second compound 10 µM, first compound 0.0949 µM
  viability, T/C: 96%
Second compound 10 µM, first compound 0.3 µM
  viability, T/C: 81%
Second compound 10 µM, first compound 0.949 µM
  viability, T/C: 57.1%
Second compound 10 µM, first compound 3 µM
  viability, T/C: 43.4%

## COc1cc(C2c3cc4c(cc3C(OC3OC5COC(C)OC5C(O)C3O)C3COC(=O)C23)OCO4)cc(OC)c1O (stereo unspecified) + COC1C(OC(N)=O)C(O)C(Oc2ccc3c(O)c(NC(=O)c4ccc(O)c(CC=C(C)C)c4)c(=O)oc3c2C)OC1(C)C
Second compound 0.0316 µM
  IC50: > 10 µM
Second compound 0.1 µM
  IC50: > 10 µM
Second compound 0.316 µM
  IC50: > 10 µM
Second compound 1 µM
  IC50: > 10 µM
Second compound 3.16 µM
  IC50: > 10 µM
Second compound 10 µM
  IC50: > 10 µM
[1]
  viability, T/C: 120%
[2]
  viability, T/C: 105%
[3]
  viability, T/C: 98.9%
[4]
  viability, T/C: 94.9%
[5]
  viability, T/C: 98.2%
[6]
  viability, T/C: 76.1%
[7]
  viability, T/C: 118%
[8]
  viability, T/C: 108%
[9]
  viability, T/C: 118%
[10]
  viability, T/C: 92%
[11]
  viability, T/C: 95.9%
[12]
  viability, T/C: 83.3%
[13]
  viability, T/C: 95.7%
[14]
  viability, T/C: 104%
[15]
  viability, T/C: 96.1%
[16]
  viability, T/C: 90.3%
[17]
  viability, T/C: 84.8%
[18]
  viability, T/C: 73.1%
[19]
  viability, T/C: 107%
[20]
  viability, T/C: 99.1%
[21]
  viability, T/C: 100%
[22]
  viability, T/C: 83.2%
[23]
  viability, T/C: 106%
[24]
  viability, T/C: 94%
[25]
  viability, T/C: 96.2%
[26]
  viability, T/C: 113%
[27]
  viability, T/C: 109%
[28]
  viability, T/C: 115%
[29]
  viability, T/C: 97.6%
[30]
  viability, T/C: 72.3%
[31]
  viability, T/C: 83.9%
[32]
  viability, T/C: 115%
[33]
  viability, T/C: 98.9%
[34]
  viability, T/C: 91.2%
[35]
  viability, T/C: 101%
[36]
  viability, T/C: 80.8%

## O=c1[nH]cc(F)c(=O)[nH]1 + COC1C(OC(N)=O)C(O)C(Oc2ccc3c(O)c(NC(=O)c4ccc(O)c(CC=C(C)C)c4)c(=O)oc3c2C)OC1(C)C
Second compound 0.0316 µM
  IC50: > 10 µM
Second compound 0.1 µM
  IC50: > 10 µM
Second compound 0.316 µM
  IC50: > 10 µM
Second compound 1 µM
  IC50: > 10 µM
Second compound 3.16 µM
  IC50: > 10 µM
Second compound 10 µM
  IC50: > 10 µM
[1]
  viability, T/C: 94%
[2]
  viability, T/C: 101%
[3]
  viability, T/C: 91%
[4]
  viability, T/C: 94%
[5]
  viability, T/C: 87%
[6]
  viability, T/C: 79.3%
[7]
  viability, T/C: 103%
[8]
  viability, T/C: 104%
[9]
  viability, T/C: 108%
[10]
  viability, T/C: 82.1%
[11]
  viability, T/C: 95.1%
[12]
  viability, T/C: 62.5%
[13]
  viability, T/C: 87.4%
[14]
  viability, T/C: 118%
[15]
  viability, T/C: 76.6%
[16]
  viability, T/C: 92.6%
[17]
  viability, T/C: 88.1%
[18]
  viability, T/C: 84.4%
[19]
  viability, T/C: 99%
[20]
  viability, T/C: 97.8%
[21]
  viability, T/C: 101%
[22]
  viability, T/C: 82.6%
[23]
  viability, T/C: 77.3%
[24]
  viability, T/C: 69.4%
[25]
  viability, T/C: 65%
[26]
  viability, T/C: 86.3%
[27]
  viability, T/C: 97.9%
[28]
  viability, T/C: 92.3%
[29]
  viability, T/C: 82.3%
[30]
  viability, T/C: 74.9%
[31]
  viability, T/C: 90.6%
[32]
  viability, T/C: 107%
[33]
  viability, T/C: 87.3%
[34]
  viability, T/C: 83.7%
[35]
  viability, T/C: 90.3%
[36]
  viability, T/C: 78.3%
